# Reference: the supplement of paper PMC4862054
# Assays:
# Assay in all cases: normalised response (% of control), CellTox Green; higher = less cell death (100 = DMSO, 0 = benzethonium chloride kill control)
# Details in all cases: incubation time: 72 h
# MDA-MB-436 = tested on: MDA-MB-436
# In short: (§1)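 Breast cancer cell lines (20 µl suspension) were seeded into 384-well plates holding compound at 5 concentrations in 10-fold steps over a compound-specific 10,000-fold range, then incubated 72 h. CellTox Green fluorescence (485/520 nm) was read first, then CellTiter-Glo luminescence after 10 min at room temperature. Each plate was normalised to 0.1 % DMSO (100) and a positive kill control (0). Each value is the normalised signal at a single concentration of the series.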
# BT-474 = tested on: BT-474
# In short: as §1
# HCC1937 = tested on: HCC1937
# In short: as §1
# MDA-MB-231 = tested on: MDA-MB-231
# In short: as §1
# MCF-10A = tested on: MCF-10A
# In short: as §1
# MFM-223 = tested on: MFM-223
# In short: as §1
# DU-4475 = tested on: DU-4475
# In short: as §1
# CAL-51 = tested on: CAL-51
# In short: as §1
# CAL-85-1 = tested on: CAL-85-1
# In short: as §1
# HCC1599 = tested on: HCC1599
# In short: as §1
# HCC1143 = tested on: HCC1143
# In short: as §1
# BT-549 = tested on: BT-549
# In short: as §1
# HDQ-P1 = tested on: HDQ-P1
# In short: as §1
Structure (SMILES),normalised response (MDA-MB-436),normalised response (BT-474),normalised response (HCC1937),normalised response (MDA-MB-231),normalised response (MCF-10A),normalised response (MFM-223),normalised response (DU-4475),normalised response (CAL-51),normalised response (CAL-85-1),normalised response (HCC1599),normalised response (HCC1143),normalised response (BT-549),normalised response (HDQ-P1)
CN1CC[C@H](c2c(O)cc(O)c3c(=O)cc(-c4ccccc4Cl)oc23)[C@H](O)C1 [Alvocidib] (10000 nM),100%,88.8%,92.3%,25.4%,-1.97%,47.7%,94.9%,63.9%,-9.96%,86%,92.5%,66.1%,71.5%
Nc1ccn([C@@H]2O[C@H](CO)[C@@H](O)[C@@H]2O)c(=O)n1 [Cytarabine] (1000 nM),83.5%,103%,117%,106%,115%,97.5%,109%,37.4%,109%,104%,112%,111%,107%
Nc1ccn([C@@H]2O[C@H](CO)[C@@H](O)[C@@H]2O)c(=O)n1 [Cytarabine] (10000 nM),93.6%,100%,96.1%,113%,48.4%,107%,101%,26.1%,91.7%,95.5%,64.6%,99.4%,111%
Cc1c2oc3c(C)ccc(C(=O)N[C@@H]4C(=O)N[C@H](C(C)C)C(=O)N5CCC[C@H]5C(=O)N(C)CC(=O)N(C)[C@@H](C(C)C)C(=O)O[C@@H]4C)c3nc-2c(C(=O)N[C@@H]2C(=O)N[C@H](C(C)C)C(=O)N3CCC[C@H]3C(=O)N(C)CC(=O)N(C)[C@@H](C(C)C)C(=O)O[C@@H]2C)c(N)c1=O [Dactinomycin] (100 nM),89.8%,76.7%,109%,17.9%,-3.54%,78.6%,81.8%,29.5%,31.6%,75.9%,91%,33.4%,61.8%
Cc1c2oc3c(C)ccc(C(=O)N[C@@H]4C(=O)N[C@H](C(C)C)C(=O)N5CCC[C@H]5C(=O)N(C)CC(=O)N(C)[C@@H](C(C)C)C(=O)O[C@@H]4C)c3nc-2c(C(=O)N[C@@H]2C(=O)N[C@H](C(C)C)C(=O)N3CCC[C@H]3C(=O)N(C)CC(=O)N(C)[C@@H](C(C)C)C(=O)O[C@@H]2C)c(N)c1=O [Dactinomycin] (1000 nM),116%,89.6%,124%,52.3%,41.4%,60.5%,104%,95.1%,13.8%,113%,59.3%,93%,94.9%
COc1cccc2c1C(=O)c1c(O)c3c(c(O)c1C2=O)C[C@@](O)(C(=O)CO)C[C@@H]3O[C@H]1C[C@H](N)[C@H](O)[C@H](C)O1 [Doxorubicin] (1000 nM),126%,105%,148%,160%,129%,68%,111%,22.4%,77.5%,149%,143%,185%,120%
Cc1ccc(F)c(NC(=O)Nc2ccc(-c3cccc4[nH]nc(N)c34)cc2)c1 [Linifanib] (100 nM),66.4%,101%,117%,116%,107%,103%,107%,101%,96.3%,106%,122%,110%,112%
S=c1[nH]cnc2nc[nH]c12 [Mercaptopurine] (1000 nM),100%,94.6%,23.3%,96.1%,108%,85.8%,97.6%,102%,104%,92.1%,88.2%,77.2%,97.3%
S=c1[nH]cnc2nc[nH]c12 [Mercaptopurine] (10000 nM),93.6%,101%,89.1%,95.7%,83.9%,79.1%,97.8%,101%,118%,102%,108%,107%,102%
Clc1ccc(C(c2ccccc2Cl)C(Cl)Cl)cc1 (stereo not drawn) [Mitotane] (1000 nM),96.3%,100%,99.9%,95.2%,96.4%,93.7%,98.3%,103%,108%,93.5%,87%,115%,56.1%
COc1cccc2cc(-c3nc([C@H]4CC[C@H](C(=O)O)CC4)n4ncnc(N)c34)[nH]c12 [OSI-027] (10000 nM),109%,94.2%,112%,130%,101%,84%,99.7%,94.5%,89.2%,107%,115%,113%,106%
OC[C@H]1O[C@@H](n2cnc3c2N=CNC[C@H]3O)C[C@@H]1O [Pentostatin] (1000 nM),102%,98.9%,104%,116%,108%,96%,103%,103%,106%,95.5%,101%,111%,103%
OC[C@H]1O[C@@H](n2cnc3c2N=CNC[C@H]3O)C[C@@H]1O [Pentostatin] (10000 nM),97.6%,103%,103%,118%,103%,90.8%,97.4%,102%,85.2%,95.2%,110%,88.3%,101%
C=CCNC1=C2C[C@@H](C)C[C@H](OC)[C@H](O)[C@@H](C)/C=C(\C)[C@H](OC(N)=O)[C@@H](OC)/C=C\C=C(/C)C(=O)NC(=CC1=O)C2=O [Tanespimycin] (1000 nM),24.3%,76.9%,120%,36.8%,31.3%,98.9%,62.4%,48.8%,68.2%,95.6%,91.2%,99.8%,60.1%
C=CCNC1=C2C[C@@H](C)C[C@H](OC)[C@H](O)[C@@H](C)/C=C(\C)[C@H](OC(N)=O)[C@@H](OC)/C=C\C=C(/C)C(=O)NC(=CC1=O)C2=O [Tanespimycin] (10000 nM),99.4%,62.6%,102%,15.4%,39.1%,86%,69%,58.7%,75.6%,108%,52.5%,109%,55.1%
CO[C@H]1C[C@@H]2CC[C@@H](C)[C@@](O)(O2)C(=O)C(=O)N2CCCC[C@H]2C(=O)O[C@H]([C@H](C)C[C@@H]2CC[C@@H](OC(=O)C(C)(CO)CO)[C@H](OC)C2)CC(=O)[C@H](C)/C=C(\C)[C@@H](O)[C@@H](OC)C(=O)[C@H](C)C[C@H](C)/C=C/C=C/C=C/1C [Temsirolimus] (100 nM),97.1%,91.2%,110%,123%,91.2%,90.9%,98.8%,103%,80%,106%,130%,130%,109%
C[C@]1(c2nc3c(C(N)=O)cccc3[nH]2)CCCN1 [Veliparib] (1000 nM),91.3%,103%,120%,116%,106%,98.1%,99%,100%,90%,105%,64.8%,129%,99%
C[C@]1(c2nc3c(C(N)=O)cccc3[nH]2)CCCN1 [Veliparib] (10000 nM),112%,96.5%,110%,88.2%,107%,92.3%,103%,86.6%,87.9%,117%,110%,106%,90.5%
CC[C@]1(O)C[C@@H]2CN(CCc3c([nH]c4ccccc34)[C@@](C(=O)OC)(c3cc4c(cc3OC)N(C)[C@H]3[C@@](O)(C(=O)OC)[C@H](OC(C)=O)[C@]5(CC)C=CCN6CC[C@]43[C@@H]65)C2)C1 [Vinblastine] (100 nM),88.4%,67.5%,-65.7%,28.5%,46%,54.7%,93.8%,32.1%,61.1%,78.4%,56.7%,66.2%,96.8%
CC[C@]1(O)C[C@@H]2CN(CCc3c([nH]c4ccccc34)[C@@](C(=O)OC)(c3cc4c(cc3OC)N(C)[C@H]3[C@@](O)(C(=O)OC)[C@H](OC(C)=O)[C@]5(CC)C=CCN6CC[C@]43[C@@H]65)C2)C1 [Vinblastine] (1000 nM),83.1%,75.3%,92.1%,19.5%,50.5%,51.2%,95.5%,20.7%,85.4%,75.5%,34.2%,61.4%,101%
CS(=O)(=O)c1ccc(C(=O)Nc2ccc(Cl)c(-c3ccccn3)c2)c(Cl)c1 [Vismodegib] (10000 nM),85.5%,102%,84.1%,94.1%,85.5%,98%,100%,102%,138%,98.8%,76.7%,119%,113%
